In brackets after ≈: the same amount, converted by molar mass. Read-outs that look alike come from different tables or passages of the source.
Experiments:
[1] = DPPH free radical scavenging assay (RSA)
Experimental: For the 2,2′-diphenylpicrylhydrazyl (DPPH) assay, antioxidant compounds were dissolved in ethanol with a stock concentration of 4 mM and stirred for 24 h. DPPH (Alfa Aesar) was also dissolved in ethanol at 0.127 mM. Different compound solutions were prepared by serial dilutions of each stock solution ([…]). […] Amounts of 80 µL of each solution and 80 µL of DPPH were added in a 96-well plate. The absorbance was measured at different times (10, 20 and 30 min and 1 and 2 h) by a Multi-Detection Microplate Reader Synergy HT (λMAX = 515 nm). Radical scavenging activity (RSA, %) was calculated using Equation (1) (1) RSA(%)=ADPPH−AEXTRACT/ADPPH·100 where AEXTRACT and ADPPH correspond to the absorbance of DPPH with and without the extracts, respectively. Eight replicates were used for each compound and results were expressed as mean value ± standard deviation. The RSA half-maximal inhibitory concentration (IC50) values were calculated from the relationship curve of RSA versus concentrations by a non-linear fit using the software GraphPad Prism 7.

[2] = system: human dermal fibroblasts (HDF); test: Cell viability, AlamarBlue assay; type: cell-based; settings: 24 h, AlamarBlue, non-linear fit
Experimental: Cytotoxicity of selected antioxidant compounds was assessed using human dermal fibroblasts (HDF, Innoprot, P10856) and an AlamarBlue assay. Human fibroblasts were grown and maintained using Dulbecco’s Modified Eagle Medium high glucose (DMEM, Sigma Aldrich, D6171), supplemented with 10% Fetal Bovine Serum (FBS), 2% L-glutamine and 1% penicillin/streptomycin. Cells were incubated at 37 °C, 95% relative humidity and 5% CO2. Additionally, DMEM-high glucose, HEPES, no phenol red (Gibco, 2106329) was used to prepare the AlamarBlue solution. Stock solutions of the antioxidant compounds 3, 8, 15 and 17 were prepared in dimethyl sulfoxide (DMSO). Compound 7 was not soluble enough in DMSO to obtain a cell viability IC50 value. Serial dilutions of the antioxidant compounds were prepared using the previously mentioned stock solutions and DMEM. Final DMSO concentration was maintained lower than 1% v/v in the cell culture experiments. HDF were seeded at 9 × 10^4 cells/well in a 96-well plate and incubated for 24 h. The medium was replaced by the corresponding antioxidant solutions and incubated for an additional 24 h. Then, compounds were removed, cells were washed with Dulbecco’s Phosphate Buffered Saline (PBS, Sigma Aldrich) and treated with a 10% v/v AlamarBlue (Invitrogen) solution prepared in DMEM without phenol red. After 3 h of incubation, absorbance was monitored at 570 nm by a Multi-Detection Microplate Reader Synergy HT. Cells treated with DMEM without any antioxidant compound were used as the 100% viability control. Eight replicates were used for each antioxidant solution. IC50 values were obtained by a non-linear fit using the software GraphPad Prism 7.

[3] = Stability in aqueous media (H2O/acetonitrile 80:20, HPLC-MS); type: physicochemical
Text: The solutions were checked by HPLC-MS at regular intervals of time for 60 days. […] The rest of the compounds suffered progressive degradation, with complete disappearance from the solution after 10 or 20 days. The most unstable polyphenol derivatives were 4 and 10 (Figure S1), having both two p-dihydroxy substitutions in the phenyl rings, which points to the rapid and easy oxidation to the p-hydroquinone. From the four compounds with three phenyl rings, only one was stable in aqueous solution (17).

[4] = system: Saccharomyces cerevisiae strain BY4741; test: In vivo antioxidant capacity in stressed yeasts (growth recovery, survivors); type: cell-based
Experimental: Saccharomyces cerevisiae haploid strain BY4741 was used as described previously. Briefly, 20 μL of glycerol stock culture was revived in 5ml of YPD medium (1% yeast extract, 2% bacteriological peptone and 2% dextrose) at 28 °C, with shaking (210 rpm). Fifty microliters of 20-h-old culture was used to inoculate fresh 5ml YPD (control medium) or 5 mL of oxidative stress medium (YPOxD: YPOxD; 1% yeast extract, 2% bacteriological peptone, 1% dextrose and 3% H2O2). Stress (and control) was conducted during 16h at 28 °C, with shaking (220 rpm).
Growth rate was determined from growth kinetics using the BioScreen C plate-reader system (OY Growth Curves Ab Ldt., Helsinki, Finland). Stressed yeast cultures (16 h old) were used to inoculate 200 µl of fresh media to an initial OD595 of 0.05–0.07, being distributed in 100-well honeycomb plates (Oy Growth Curves) in triplicate per each condition (each different dose of each compound). Plates were then incubated at 28 °C for 72h, with shaking (High force), taking OD measurement each 15 min in the Bioscreen C. Maximum growth rate (μmax) and biomass production (carrying capacity) were determined in R using ‘Growthcurver’ package version 0.3 [24]. Growth curves were constructed in EXCEL, represented as mean ± SEM (standard error of mean). […] In addition, to measure survival after oxidative stress and antioxidant effectiveness of each compound, yeast cells from each challenge were serially diluted in 96-well plates, and each dilution was spotted (with a 8 × 6 stainless steel replica platter from SIGMA) in triplicate to determine viable colonies after 24–48 h at 28 °C. Survivors (mean ± SEM) were compared between treatments with one-way ANOVA, Fisher’s LSD test, with alpha at 0.05 for significance.

[5] = Aqueous thermodynamic solubility in H2O (UV); type: physicochemical; settings: water, thermodynamic from solid
Text: 4) Log P and aqueous solubility of selected compounds.
Table S2. Theoretical Log P values and aqueous thermodynamic solubility measured for
Comp `Chemical Structure MW LogP Calc Aqueous Solubility a
a Thermodynamic solubility in H 2O (UV). […]

[6] = ABTS radical cation scavenging assay
Experimental: The 2,2′-azino-bis (3-ethylbenzothiazoline-6-sulfonic acid) diammonium salt (ABTS) assay was performed according to Re et al. and modified by Oki et al. for its use in microplates. Samples were diluted in methanol. An ABTS^•+ stock solution was prepared by adding 44 μL of potassium persulfate (140 mmol/L) to a 2.5 mL ABTS^•+ aqueous solution (7 mmol/L). The working solution of the radical ABTS^+ was prepared by diluting the stock solution 1:75 (v/v) in a sodium phosphate buffer (5 mmol/L, pH 7.4) to obtain an absorbance value of 0.7±0.02 at 734 nm. Samples (30 μL) were added to 270 μL of the working solution of ABTS^•+ in a microplate. Absorbance was measured at 734 nm and 30 °C for 20 min, every 5 min in a Synergy HT plate spectrophotometer (Biotek Instruments, Winoosky, VT, USA). A calibration curve was made with Trolox (20–250 μM). All samples were analyzed in triplicate. Results were expressed in μmol TE/μmol of pure compound, as for the ORAC assays.

O=C(Nc1ccc(O)cc1)N(c1ccc(O)cc1)c1ccc(O)cc1 [Compound 17, N,N-bis(4-Hydroxyphenyl)-N′-(4′-hydroxyphenyl)urea]
concentration down to which RSA ability is maintained independently of time ([1]; 10 min to 2 h): 0.25 mM
RSA capacity fold higher compared to resveratrol ([1]; after 10 min, from IC50): 3.7 fold
IC50 ([1]; compound needed to reach 50% RSA after 10 min, read-out: DPPH PSA IC50 10 min): 17.9 µM
RSA percentage ([1]; highest concentration 2 mM, 10 min): ~72%
IC50 ([1]; read-out: DPPH PSA IC50 2 h, compound needed to reach 50% RSA after 2 h): 9.6 µM
IC50 [2]: > 1400 µM
IC50 ([2]; Homo sapiens, Fibroblast): 1790 µM
stability in aqueous media ([3]; H2O/acetonitrile (80:20%), room temperature, checked for 60 days): sufficiently stable
Aqueous Stability (%) ([3]; remaining pure compound (HPLC) after two months at room temperature in aqueous solution (+20% acetonitrile)): 93%
growth rate (r) recovery of stressed yeast ([4]; H2O2-stressed BY4741, doses 2, 20 and 40 μg): best performing antioxidant
carrying capacity (k) recovery of stressed yeast ([4]; H2O2-stressed BY4741, each dose tested): able to recover the carrying capacity of yeast cells similarly as control antioxidants
melting point: 186 to 187 °C (dec.)
solubility [5]: 620 ± 10 µg/mL (≈ 1840 µM)
ABTS [6]: 3.57 ± 0.00 µmol of trolox/µmol of pure compound
